# Experimental data from paper PMC7935272 (PLoS Pathogens, 2021).
# Values joined by “and” are separate entries in the source; they are usually repeats but may differ in a detail not shown here. Identical values can stand only once. Like-named read-outs stand apart in the source and are kept apart here.
# How the values were obtained:
# MeV = assay: Synergy analysis ERDRP-0519 and GHP-88309, antiviral; format: cell-based; details: ERDRP519 0.00 µM
smiles,measurement,setting,value
NC(=O)c1c(F)cccc1-c1cccc2cnccc12 [GHP88309],"S4 B cytotoxicity matrix, normalized value",Vero-hSLAM cells,100.00
same,"S4 B cytotoxicity matrix, normalized value","Vero-hSLAM cells; ERDRP519 0.00 µM, GHP88309 0.27 µM",99.90
same,"S4 B cytotoxicity matrix, normalized value","Vero-hSLAM cells; ERDRP519 0.00 µM, GHP88309 0.82 µM",99.44 and 91.52
same,"S4 B cytotoxicity matrix, normalized value","Vero-hSLAM cells; ERDRP519 0.00 µM, GHP88309 7.41 µM",97.69
same,"S4 B cytotoxicity matrix, normalized value","Vero-hSLAM cells; ERDRP519 0.00 µM, GHP88309 66.67 µM",98.85 and 98.57
same,"S4 B cytotoxicity matrix, normalized value","Vero-hSLAM cells; ERDRP519 0.00 µM, GHP88309 200.00 µM",92.50 and 87.59 and 94.52
same,"S4 A antiviral matrix, normalized value",MeV; GHP88309 0.03 µM,100.00
same,"S4 A antiviral matrix, normalized value",MeV; GHP88309 0.08 µM,78.32 and 88.03 and 100.19 and 97.70
same,"S4 A antiviral matrix, normalized value",MeV; GHP88309 0.74 µM,50.86 and 41.77 and 80.59 and 41.41
same,"S4 A antiviral matrix, normalized value",MeV; GHP88309 2.22 µM,14.61 and 17.48 and 22.13 and 11.92
